A short description of data set [1]: Pharmacokinetic parameters following intravenous and oral administration in dogs. In kind it is in vivo, female beagles. To be noted: for MRT / clearance / half-life: female, beagle, dog, plasma; for clearance: read-out: CLplasma (converted); for half-life: read-out: t½ (converted). The method, then: (§1) B-2. Determination of Pharmacokinetic Parameters Following Intravenous and Oral Administration
(§2) The pharmacokinetic parameters of the compounds according to the invention were determined in male Wistar rats and/or in female beagles and/or in cynomolgus monkeys and/or in male CD-1 mice. Intravenous administration in the case of mice and rats was carried out by means of a species-specific plasma/DMSO formulation, and in the case of dogs and monkeys by means of a water/PEG400/ethanol formulation. In all species, oral administration of the dissolved substance was performed via gavage, based on a water/PEG400/ethanol formulation.
(§3) An internal standard (which may also be a chemically unrelated substance) was added to the samples of the compounds of the invention, calibration samples and qualifiers, and there followed protein precipitation by means of acetonitrile in excess. Addition of a buffer solution matched to the LC conditions, and subsequent vortexing, was followed by centrifugation at 1000 g. The supernatant was analysed by LC-MS/MS using C18 reversed-phase columns and variable mobile phase mixtures. The substances were quantified via the peak heights or areas from extracted ion chromatograms of specific selected ion monitoring experiments.
(§4) The plasma concentration/time plots determined were used to calculate the pharmacokinetic parameters such as AUC, Cmax, t1/2 (terminal half-life), F (bioavailability), MRT (mean residence time) and CL (clearance), by means of a validated pharmacokinetic calculation program.
(§5) Since the substance quantification was performed in plasma, it was necessary to determine the blood/plasma distribution of the substance in order to be able to adjust the pharmacokinetic parameters correspondingly.
(§6) For this purpose, a defined amount of substance was incubated in K3 EDTA whole blood of the species in question in a rocking roller mixer for 20 min. After centrifugation at 1000 g, the plasma concentration was measured (by means of LC-MS/MS; see above) and determined by calculating the ratio of the Cblood/Cplasma value.

The nature of data set [2]: Pharmacokinetic parameters following intravenous and oral administration in rats. It is filed as in vivo, male Wistar rats. To be noted: for clearance / MRT / half-life: male, Wistar, rat, plasma; for clearance: read-out: CLplasma (converted); for MRT: read-out: MRT; for half-life: read-out: t½ (converted). The method, then: as §1, §2, §3, §4, §5, §6
Data set [3] deals with T1, recombinant guanylate cyclase reporter cell line (Rattus norvegicus, UniProt P20595).
T1 construct: expressed in transfected cells; CHO by own knowledge of the cited Wunder et al. 2005
T1 sequence (P20595 1-619): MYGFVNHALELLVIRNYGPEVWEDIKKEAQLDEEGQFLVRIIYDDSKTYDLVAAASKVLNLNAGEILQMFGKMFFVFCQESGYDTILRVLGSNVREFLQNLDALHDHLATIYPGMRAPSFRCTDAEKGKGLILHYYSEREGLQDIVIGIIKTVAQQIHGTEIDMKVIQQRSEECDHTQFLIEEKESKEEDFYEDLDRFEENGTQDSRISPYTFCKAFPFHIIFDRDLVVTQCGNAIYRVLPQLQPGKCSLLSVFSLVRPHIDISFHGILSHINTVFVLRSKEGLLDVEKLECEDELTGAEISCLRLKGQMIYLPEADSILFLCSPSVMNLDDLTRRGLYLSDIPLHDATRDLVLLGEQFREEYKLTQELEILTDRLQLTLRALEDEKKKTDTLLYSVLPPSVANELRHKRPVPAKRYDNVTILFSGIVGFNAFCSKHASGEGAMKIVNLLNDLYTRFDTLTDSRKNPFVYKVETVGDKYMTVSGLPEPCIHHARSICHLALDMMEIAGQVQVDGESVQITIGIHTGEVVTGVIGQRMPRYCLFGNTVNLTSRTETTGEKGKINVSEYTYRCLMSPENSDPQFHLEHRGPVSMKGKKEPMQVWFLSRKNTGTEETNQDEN
T1 sequence (P19686 1-690 partner): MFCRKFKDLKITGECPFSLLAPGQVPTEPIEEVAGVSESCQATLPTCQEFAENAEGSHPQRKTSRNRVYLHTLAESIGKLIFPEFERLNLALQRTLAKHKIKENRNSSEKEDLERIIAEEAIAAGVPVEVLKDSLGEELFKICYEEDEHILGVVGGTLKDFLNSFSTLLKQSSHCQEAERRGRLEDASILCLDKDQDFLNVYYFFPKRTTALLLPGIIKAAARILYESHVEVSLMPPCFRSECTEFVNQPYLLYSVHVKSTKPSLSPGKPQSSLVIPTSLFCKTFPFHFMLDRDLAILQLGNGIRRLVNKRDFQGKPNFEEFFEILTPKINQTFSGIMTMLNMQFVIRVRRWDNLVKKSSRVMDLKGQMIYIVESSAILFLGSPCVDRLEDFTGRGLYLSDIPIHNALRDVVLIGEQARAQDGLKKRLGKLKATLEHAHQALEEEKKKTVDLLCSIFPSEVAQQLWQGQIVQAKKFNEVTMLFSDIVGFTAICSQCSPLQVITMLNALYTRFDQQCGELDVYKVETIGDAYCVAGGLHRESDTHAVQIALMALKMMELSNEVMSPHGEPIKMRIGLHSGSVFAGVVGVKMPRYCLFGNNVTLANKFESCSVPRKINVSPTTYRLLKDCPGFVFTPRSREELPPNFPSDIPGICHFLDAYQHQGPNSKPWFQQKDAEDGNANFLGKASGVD
In words: Effect on a recombinant guanylate cyclase reporter cell line. In kind it is cell-based. Here is the method: B-1. Effect on a Recombinant Guanylate Cyclase Reporter Cell Line
The cellular activity of the compounds according to the invention was determined using a recombinant guanylate cyclase reporter cell line, as described in F. Wunder et al., Anal. Biochem. 339, 104-112 (2005).

Where [4] appears, read: intravenous administration (i.v.).

Where a name gives a salt, the structure may show the parent alone. Read-outs that look alike come from different tables or passages of the source.

As for `CC(C)CN1CCN(c2ccc(-c3ccc(Cl)cc3N3CCC[C@@H](n4ncc(C(=O)O)c4C(F)F)C3)cc2)CC1` (single isomer, unassigned) [Example 2, 1-[1-{4-Chloro-4′-[4-(2-methylpropyl)piperazin-1-yl][1,1′-biphenyl]-2-yl}piperidin-3-yl]-5-(difluoromethyl)-1H-pyrazole-4-carboxylic acid], the MRT came out at 25.6 h in data set [1] (setting [4]); 21.3 h in data set [1] (oral administration (p.o.)); 3.44 h in data set [2] (iv, intravenous administration); 6.23 h in data set [2] (po, oral administration (p.o.)). Further, the clearance is 0.167 mL/min/kg in data set [1] (setting [4]) and 2.33 mL/min/kg in data set [2] (iv, intravenous administration). Also, the half-life in data set [1] (setting [4]) is 17.7 h; in data set [1] (oral administration (p.o.)) it was 14 h; in data set [2] (iv, intravenous administration), 3.13 h; in data set [2] (po, oral administration (p.o.)), 3.96 h. Besides, the AUCnorm in data set [1] (setting [4]) amounted to 81.7 kg·h/L; in data set [1] (oral administration (p.o.)), 67.7 kg·h/L; in data set [2] (intravenous administration) it was 7.08 kg·h/L; in data set [2] (oral administration (p.o.)), 3.77 kg·h/L. The F is listed as 82.8% in data set [1] (oral administration (p.o.)) and 53.3% in data set [2] (oral administration (p.o.)). Moreover, the EC50 in data set [3] worked out at 8.6 nM. In addition, the “MEC (minimum effective concentration)” value in data set [3] came to 1.0 nM.

As to `CC(C)CN1CCN(c2ccc(-c3ccc(Cl)cc3N3CCCC(n4ncc(C(=O)O)c4C(F)(F)F)C3)cc2)CC1` (single isomer, unassigned) [Example 9, 1-[1-{4-chloro-4′-[4-(2-methylpropyl)piperazin-1-yl][1,1′-biphenyl]-2-yl}piperidin-3-yl]-5-(trifluoromethyl)-1H-pyrazole-4-carboxylic acid hydrochloride], the MRT is 10.3 h in data set [1] (setting [4]); 13.7 h in data set [1] (oral administration (p.o.)); 5.83 h in data set [2] (iv, intravenous administration); 8.51 h in data set [2] (po, oral administration (p.o.)). In addition, the clearance in data set [1] (setting [4]) is 0.5 mL/min/kg; in data set [2] (iv, intravenous administration), 3 mL/min/kg. Also, the half-life was 7.86 h in data set [1] (setting [4]); 9.28 h in data set [1] (oral administration (p.o.)); 4.1 h in data set [2] (iv, intravenous administration); 4.96 h in data set [2] (po, oral administration (p.o.)). In addition, the AUCnorm was 37.4 kg·h/L in data set [1] (setting [4]), 31.7 kg·h/L in data set [1] (oral administration (p.o.)), 5.48 kg·h/L in data set [2] (intravenous administration) and 4.50 kg·h/L in data set [2] (oral administration (p.o.)). The F is 84.8% in data set [1] (oral administration (p.o.)) and 82.1% in data set [2] (oral administration (p.o.)). The EC50 in data set [3] was found to be 11 nM. For the same compound, the “MEC (minimum effective concentration)” value in data set [3] (hydrochloride) amounted to 2.2 nM.

`O=C(O)c1cnn(C2CCCN(c3cc(Cl)ccc3-c3ccc(N4CCN(CC5CC5)CC4)cc3)C2)c1C(F)(F)F` (single isomer, unassigned) [Example 10, 1-[1-[5-Chloro-2-[4-[4-(cyclopropylmethyl)piperazin-1-yl]phenyl]phenyl]-3-piperidyl]-5-(trifluoromethyl)pyrazole-4-carboxylic acid hydrochloride] registered an AUCnorm in data set [2] (intravenous administration) of 1.37 kg·h/L. For the same compound, in data set [2] (iv, intravenous administration), the clearance is 12.2 mL/min/kg, the mean residence time (MRT) was 2.39 h and the half-life is 1.89 h. Also, in data set [2] (po, oral administration (p.o.)), the mean residence time MRT is 4.04 h and the half-life was 3.41 h. Further, in data set [2] (oral administration (p.o.)), the AUCnorm was found to be 0.52 kg·h/L and the F is given as 37.4%. In data set [3], the EC50 was found to be 10.3 nM and the “MEC (minimum effective concentration)” value is given as 2.0 nM.

Broadly, the MRT is the average time that molecules of a dose stay in the body. The term EC50 denotes the concentration giving half of the maximal effect.

The values are drawn from patent US20230346777A1, “USE OF SGC ACTIVATORS FOR THE TREATMENT OF OPHTHALMOLOGIC DISEASES” (Bayer Aktiengesellschaft, priority 2020, published 2023).
